The record followed here is PubChem BioAssay (NCI).

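Tested at 5 concentrations; 48 h exposure; 96-well plates; endpoints linearly interpolated, else capped at highest concentration. GI50 = concentration required for 50% inhibition of growth. At the TGI there is no net growth.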 Bounds are passed on as bounds.

The subject of the first assay is IGROV1 ovarian. As to the kind of experiment: inhibition of tumour cell growth, NCI panel, 48 h.
As for `COc1cc2c(c(OC)c1OC)-c1ncc3cc4c(cc3c1C2)OCO4`, the GI50 was 12.8 µM and the TGI was above 100 µM.
For `CC1=C(C(=O)Nc2ccc(Cl)c(Cl)c2)C(c2cccc(Oc3ccccc3)c2)NC(=O)N1` (stereo unspecified), in that order: 5.6 µM and 32.6 µM.
For `COc1ccc(O)c(C(=O)c2ccc(C(=O)N[C@H]3CCCNC[C@@H]3NC(=O)c3ccncc3)cc2)c1F` the same measures were 3.74 µM and above 25 µM.
For `COc1ccc(-n2c(C)cc(-c3ccccc3)c2C)cc1`, in that order: 4.23 µM and 34.8 µM.
In the case of `O[C@H](c1cc(C(F)(F)F)nc2c(C(F)(F)F)cccc12)[C@@H]1CCCCN1`, the GI50 was 1.17 µM and the TGI was determined as 4.14 µM.
Take `CCCOc1ccc2sc(NC(=O)OC)nc2c1`: the TGI is above 100 µM.
Consider `O=C(CSC1CCc2ccccc21)N/N=C/c1ccccc1O` (stereo unspecified), for which the GI50 was 2.24 µM and the TGI came to 37.4 µM.
For `COc1cc(C(=O)N2CCN(c3ncccn3)CC2)c(N)cc1OCc1ccccc1`, in that order: above 100 µM and above 100 µM.
Consider `O=C(Nc1ccc(F)cc1)c1cc(S(=O)(=O)Nc2nc3ccccc3o2)c(SCc2ccccc2)cc1Cl`, for which the GI50 is 0.611 µM and the TGI amounted to 21.3 µM.
`CCN(Cc1ccccc1C)c1ccc(CO)c(Cl)c1` had a TGI of 0.747 µM.
With `NC(=O)OCCn1cc(-c2nc(-c3c[nH]c4ncccc34)cs2)c2ccccc21`, the GI50 was 0.138 µM and the TGI was 1.95 µM.
For `Cn1cc(C2=C(c3cccc(Br)c3)C(=O)NC2=O)c2ccccc21` the same measures were 11 µM and above 25 µM.
For `COc1ccc(-c2ccc(-c3ccc(C(=N)N)s3)s2)cc1`, in that order: 0.244 µM and 0.509 µM.
For `Cc1cc(C)c(NC(=O)c2sc3nc4c(cc3c2N)CN(Cc2ccccc2)CC4)c(C)c1`, in that order: 6.54 µM and above 100 µM.
Consider `O=C1NC(=NCCc2cccc(Cl)c2)S/C1=C\c1ccc2ncccc2c1`, for which the GI50 is above 25 µM and the TGI is above 25 µM.

In another assay the test system is NCI-H522 lung. As to the kind of experiment: inhibition of tumour cell growth, NCI panel, 48 h.
As to `O=C1c2ccccc2-c2c1c1ccccc1c(=O)n2CCCCl`, the GI50 is 37.4 µM and the TGI is above 100 µM.
For `COc1cc2c(c(OC)c1OC)-c1ncc3cc4c(cc3c1C2)OCO4` the same measures were 18.9 µM and 45.9 µM.
For `CC1=C(C(=O)Nc2ccc(Cl)c(Cl)c2)C(c2cccc(Oc3ccccc3)c2)NC(=O)N1` (stereo unspecified) the same measures were 4.47 µM and 26 µM.
Take `COc1ccc(O)c(C(=O)c2ccc(C(=O)N[C@H]3CCCNC[C@@H]3NC(=O)c3ccncc3)cc2)c1F`: the GI50 is 7.69 µM and the TGI is above 25 µM.
Turning to `COc1ccc(-n2c(C)cc(-c3ccccc3)c2C)cc1`, the GI50 is 1.48 µM and the TGI stood at 4.68 µM.
For `CCCOc1ccc2sc(NC(=O)OC)nc2c1`, in that order: 1.69 µM and above 25 µM.
For `O=C(CSC1CCc2ccccc21)N/N=C/c1ccccc1O` (stereo unspecified) the same measures were 4.98 µM and 26.4 µM.
For `COc1cc(C(=O)N2CCN(c3ncccn3)CC2)c(N)cc1OCc1ccccc1`, in that order: above 100 µM and above 100 µM.
Take `CCN(Cc1ccccc1C)c1ccc(CO)c(Cl)c1`: the GI50 was 13.4 µM and the TGI was found to be 28.8 µM.
For `NC(=O)OCCn1cc(-c2nc(-c3c[nH]c4ncccc34)cs2)c2ccccc21`, in that order: 1.49 µM and 4.42 µM.
With `Cn1cc(C2=C(c3cccc(Br)c3)C(=O)NC2=O)c2ccccc21`, the GI50 was 10.4 µM and the TGI was above 25 µM.
For `COc1ccc(-c2ccc(-c3ccc(C(=N)N)s3)s2)cc1`, in that order: 0.264 µM and 1.2 µM.
For `COc1ccc(CCNC(=O)c2ccc(NC3=C(Cl)C(=O)N(Cc4ccccc4)C3=O)cc2)cc1OC`, in that order: 4.74 µM and 89.9 µM.
For `Cc1cc(C)c(NC(=O)c2sc3nc4c(cc3c2N)CN(Cc2ccccc2)CC4)c(C)c1` the same measures were 1.6 µM and 6.82 µM.
With `O=C1NC(=NCCc2cccc(Cl)c2)S/C1=C\c1ccc2ncccc2c1`, the GI50 is above 25 µM and the TGI is above 25 µM.

In the next assay the test system is T-47D breast. Kind of assay: inhibition of tumour cell growth, NCI panel, 48 h.
For `O=C1c2ccccc2-c2c1c1ccccc1c(=O)n2CCCCl`, the GI50 was 22.5 µM and the TGI was above 100 µM.
For `CC1=C(C(=O)Nc2ccc(Cl)c(Cl)c2)C(c2cccc(Oc3ccccc3)c2)NC(=O)N1` (stereo unspecified), in that order: 22.9 µM and above 50 µM.
For `COc1ccc(O)c(C(=O)c2ccc(C(=O)N[C@H]3CCCNC[C@@H]3NC(=O)c3ccncc3)cc2)c1F` the same measures were 0.463 µM and above 25 µM.
For `COc1ccc(-n2c(C)cc(-c3ccccc3)c2C)cc1`, in that order: 1.65 µM and 67.2 µM.
As to `O[C@H](c1cc(C(F)(F)F)nc2c(C(F)(F)F)cccc12)[C@@H]1CCCCN1`, the GI50 was 3.82 µM and the TGI was 16 µM.
For `CCCOc1ccc2sc(NC(=O)OC)nc2c1` the same measures were 2.94 µM and above 100 µM.
For `O=C(CSC1CCc2ccccc21)N/N=C/c1ccccc1O` (stereo unspecified) the same measures were 7.04 µM and above 100 µM.
For `COc1cc(C(=O)N2CCN(c3ncccn3)CC2)c(N)cc1OCc1ccccc1` the same measures were above 100 µM and above 100 µM.
In the case of `O=C(Nc1ccc(F)cc1)c1cc(S(=O)(=O)Nc2nc3ccccc3o2)c(SCc2ccccc2)cc1Cl`, the GI50 is 28.3 µM and the TGI was above 100 µM.
For `CCN(Cc1ccccc1C)c1ccc(CO)c(Cl)c1` the same measures were 0.244 µM and 2.19 µM.
As for `Cn1cc(C2=C(c3cccc(Br)c3)C(=O)NC2=O)c2ccccc21`, the GI50 was 8.11 µM and the TGI is above 25 µM.
With `COc1ccc(-c2ccc(-c3ccc(C(=N)N)s3)s2)cc1`, the GI50 was 0.243 µM and the TGI turned out to be 0.596 µM.
For `COc1ccc(CCNC(=O)c2ccc(NC3=C(Cl)C(=O)N(Cc4ccccc4)C3=O)cc2)cc1OC`, in that order: 5.31 µM and above 100 µM.
For `Cc1cc(C)c(NC(=O)c2sc3nc4c(cc3c2N)CN(Cc2ccccc2)CC4)c(C)c1` the same measures were 2.62 µM and above 100 µM.
For `O=C1NC(=NCCc2cccc(Cl)c2)S/C1=C\c1ccc2ncccc2c1`, in that order: above 25 µM and above 25 µM.

The subject of a further assay is NCI-H460 lung. As to the kind of experiment: inhibition of tumour cell growth, NCI panel, 48 h.
Take `O=C1c2ccccc2-c2c1c1ccccc1c(=O)n2CCCCl`: the GI50 is 3.57 µM and the TGI was above 100 µM.
For `COc1cc2c(c(OC)c1OC)-c1ncc3cc4c(cc3c1C2)OCO4` the same measures were 15.5 µM and 38.2 µM.
For `CC1=C(C(=O)Nc2ccc(Cl)c(Cl)c2)C(c2cccc(Oc3ccccc3)c2)NC(=O)N1` (stereo unspecified) the same measures were 4.94 µM and 32.8 µM.
For `COc1ccc(O)c(C(=O)c2ccc(C(=O)N[C@H]3CCCNC[C@@H]3NC(=O)c3ccncc3)cc2)c1F` the same measures were 10.5 µM and above 25 µM.
Regarding `COc1ccc(-n2c(C)cc(-c3ccccc3)c2C)cc1`, the GI50 is 3.13 µM and the TGI turned out to be 18.9 µM.
Regarding `O[C@H](c1cc(C(F)(F)F)nc2c(C(F)(F)F)cccc12)[C@@H]1CCCCN1`, the GI50 is 2.28 µM and the TGI was 5.28 µM.
For `CCCOc1ccc2sc(NC(=O)OC)nc2c1` the same measures were 3.11 µM and above 100 µM.
For `O=C(CSC1CCc2ccccc21)N/N=C/c1ccccc1O` (stereo unspecified) the same measures were 3.4 µM and 14.6 µM.
For `COc1cc(C(=O)N2CCN(c3ncccn3)CC2)c(N)cc1OCc1ccccc1`, in that order: above 100 µM and above 100 µM.
For the molecule `O=C(Nc1ccc(F)cc1)c1cc(S(=O)(=O)Nc2nc3ccccc3o2)c(SCc2ccccc2)cc1Cl`, the GI50 is 19.1 µM and the TGI was 43.5 µM.
For `CCN(Cc1ccccc1C)c1ccc(CO)c(Cl)c1`, in that order: 0.821 µM and 12.7 µM.
For `NC(=O)OCCn1cc(-c2nc(-c3c[nH]c4ncccc34)cs2)c2ccccc21` the same measures were 2.46 µM and 12.5 µM.
Turning to `Cn1cc(C2=C(c3cccc(Br)c3)C(=O)NC2=O)c2ccccc21`, the GI50 is 16.9 µM and the TGI was above 25 µM.
For `COc1ccc(-c2ccc(-c3ccc(C(=N)N)s3)s2)cc1`, in that order: 0.192 µM and 0.364 µM.
For `COc1ccc(CCNC(=O)c2ccc(NC3=C(Cl)C(=O)N(Cc4ccccc4)C3=O)cc2)cc1OC`, in that order: 32 µM and above 100 µM.
On to `Cc1cc(C)c(NC(=O)c2sc3nc4c(cc3c2N)CN(Cc2ccccc2)CC4)c(C)c1`, for which the GI50 is 3.29 µM and the TGI was 16.3 µM.
Take `O=C1NC(=NCCc2cccc(Cl)c2)S/C1=C\c1ccc2ncccc2c1`: the GI50 was above 25 µM and the TGI was above 25 µM.

Another assay deals with SW-620 colon. Kind of assay: inhibition of tumour cell growth, NCI panel, 48 h.
As to `O=C1c2ccccc2-c2c1c1ccccc1c(=O)n2CCCCl`, the GI50 is 8.75 µM and the TGI is above 100 µM.
For `COc1cc2c(c(OC)c1OC)-c1ncc3cc4c(cc3c1C2)OCO4`, in that order: 18.6 µM and 60.5 µM.
For `CC1=C(C(=O)Nc2ccc(Cl)c(Cl)c2)C(c2cccc(Oc3ccccc3)c2)NC(=O)N1` (stereo unspecified), in that order: 12.8 µM and 43.8 µM.
Consider `COc1ccc(O)c(C(=O)c2ccc(C(=O)N[C@H]3CCCNC[C@@H]3NC(=O)c3ccncc3)cc2)c1F`, for which the GI50 was above 25 µM and the TGI was above 25 µM.
With `COc1ccc(-n2c(C)cc(-c3ccccc3)c2C)cc1`, the GI50 was 2.14 µM and the TGI was 12.5 µM.
For `O[C@H](c1cc(C(F)(F)F)nc2c(C(F)(F)F)cccc12)[C@@H]1CCCCN1` the same measures were 2.05 µM and 4.52 µM.
In the case of `CCCOc1ccc2sc(NC(=O)OC)nc2c1`, the GI50 was 0.544 µM and the TGI is above 100 µM.
For `O=C(CSC1CCc2ccccc21)N/N=C/c1ccccc1O` (stereo unspecified) the same measures were 5.66 µM and 81.4 µM.
Consider `COc1cc(C(=O)N2CCN(c3ncccn3)CC2)c(N)cc1OCc1ccccc1`, for which the GI50 was above 100 µM and the TGI was above 100 µM.
`O=C(Nc1ccc(F)cc1)c1cc(S(=O)(=O)Nc2nc3ccccc3o2)c(SCc2ccccc2)cc1Cl`: the GI50 is 17.6 µM and the TGI came out at 33.3 µM.
For `CCN(Cc1ccccc1C)c1ccc(CO)c(Cl)c1`, in that order: 3.74 µM and 18.5 µM.
For `NC(=O)OCCn1cc(-c2nc(-c3c[nH]c4ncccc34)cs2)c2ccccc21` the same measures were 1.3 µM and 4.53 µM.
